Values quoted from earlier work, collected in article PMC7395068, “The evolution of strategies to minimise the risk of human drug-induced liver injury (DILI) in drug discovery and development” (Archives of Toxicology, 2020).
Structures can show the parent of a compound that is named as a salt. Where two headings read alike, the source gives them in different places.

Columns and labels:
[1] = ref Chen 2016; cited from earlier work
HepG2 cells [2] = details: In vitro Assay; ref O'Brien 2006; cited from earlier work
HepG2 cells [3] = details: In vitro Assay; ref Tolosa 2012; cited from earlier work
[4] = cited from earlier work
PHH = details: In vitro Assay; ref Albrecht 2019; cited from earlier work
HepG2 = details: In vitro Assay; ref Albrecht 2019; cited from earlier work
human hepatocytes = details: In vitro Assay; ref Xu 2008; cited from earlier work
PHH spheroids = details: In vitro Assay; ref Vorrink 2018; cited from earlier work
hu-MPCC = details: In vitro Assay; ref Khetani 2012; cited from earlier work
RMPCC's = details: In vitro Assay; ref Khetani 2012; cited from earlier work

Row | SMILES | DILI +VE (5-8), DILI -VE (-4) [1] | DILI severity category [1] | Structural based (HCI) (HepG2 cells [2]) | Structural based (HCI) (HepG2 cells [3]) | In vivo DILI ([4]; ref Albrecht 2019) | In vivo DILI ([4]; ref O'Brien 2006) | In vivo DILI ([4]; ref Tolosa 2012) | Cytotoxicity PHH 48 hrs (PHH) | Cytotoxicity HepG2 48 hrs (HepG2) | Structural based (HCI) (human hepatocytes) | hLiMTs ATP <20 x Cmax (PHH spheroids) | In vivo DILI ([4]; ref Khetani 2012) | In vivo DILI ([4]; ref Vorrink 2018) | In vivo DILI ([4]; ref Xu 2008) | HMPCC's (hu-MPCC) | RMPCC's (RMPCC's) | In vivo DILI ([4]; […])
1 | CC(=O)N[C@@H](CS)C(=O)O [acetylcysteine] | -VE | vNo-DILI-Concern | +VE (lowest HCI endpoint IC50 (or in the absence of dose–response < 100 µM) < 30 × total human plasma exposure levels (Cmax.tot)) | -VE | -VE | -VE | -VE | -VE | -VE | – | – | – | – | – | – | – | –
2 | O=C1O[C@H]([C@@H](O)CO)C(O)=C1O [ascorbic acid] | – | – | – | – | – | – | – | -VE | -VE | – | – | – | – | – | – | – | –
3 | CNCCc1ccccn1 [betahistine] | – | – | – | – | – | – | – | – | – | -VE | -VE | +VE | +VE | +VE | -VE | -VE | –
4 | CCN(CC)CCOc1ccc(C(=C(Cl)c2ccccc2)c2ccccc2)cc1 [clomiphene citrate] | – | – | – | – | – | – | – | – | – | -VE | – | +VE | – | +VE | -VE | -VE | –
5 | CC(=O)O[C@]1(C(C)=O)CC[C@H]2[C@@H]3C=C(Cl)C4=CC(=O)[C@@H]5C[C@@H]5[C@]4(C)[C@H]3CC[C@@]21C [cyproterone acetate] | – | – | – | – | – | – | – | – | – | -VE | – | +VE | – | +VE | +VE | +VE | +VE
6 | COc1ccc2c(c1)[C@]13CCCC[C@@H]1[C@H](C2)N(C)CC3 [dextromethorphan] | -VE | vNo-DILI-Concern | – | – | – | – | – | – | – | -VE | – | -VE | – | -VE | -VE | -VE | –
